Activity calls are given as the source filed them. The calls are words filed in the database; no cut-off is given here.
Experiments:
[1] = molecular target: T1, Alpha-hemolysin (Staphylococcus aureus) (UniProt P09616); experiment: Inhibition of deoxycholate-induced wild type Staphylococcus aureus alpha-hemolysin oligomerization at 16 ug/ml by SDS-PAGE analysis
T1 sequence (whole entry): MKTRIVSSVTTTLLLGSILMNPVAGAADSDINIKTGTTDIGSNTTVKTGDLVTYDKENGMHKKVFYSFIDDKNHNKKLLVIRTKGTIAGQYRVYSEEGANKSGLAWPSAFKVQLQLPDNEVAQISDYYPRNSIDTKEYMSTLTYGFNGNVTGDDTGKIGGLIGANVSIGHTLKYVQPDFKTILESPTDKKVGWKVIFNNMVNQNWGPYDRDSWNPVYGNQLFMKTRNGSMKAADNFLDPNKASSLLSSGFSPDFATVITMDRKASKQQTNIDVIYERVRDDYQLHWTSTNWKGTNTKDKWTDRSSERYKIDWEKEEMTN

Staphylococcus aureus [2] = experiment: Inhibition of alpha-hemolysin protein expression in Staphylococcus aureus 8325-4 at 4 to 256 ug/ml by Western blot analysis; type: functional, organism-based
[3] = molecular target: T1, Alpha-hemolysin (Staphylococcus aureus); experiment: Binding affinity to wild type Staphylococcus aureus alpha-hemolysin by fluorescence quenching method
Staphylococcus aureus [4] = experiment: Antimicrobial activity against Staphylococcus aureus at 1024 ug/ml by broth microdilution method; type: functional, organism-based

SMILES: Cc1c(O)c(C)c2c(c1O)C(=O)CC(c1ccc(O)c(O)c1)O2 (centres undefined)
- inhibition [1]: Active
- inhibition (Staphylococcus aureus [2]): inactive
- Activity [3]: Active
- Activity (Staphylococcus aureus [4]): inactive

— ChEMBL document CHEMBL2331339
